The values that follow come from patent US20020091148A1, “3-substituted indole antiproliferative angiogenesis inhibitors” (priority 2000, published 2002).

One may read the melting point as the temperature, or range, at which the solid turns liquid.

Each structure is given as a SMILES string.

One data set relates to certain tumor models. Conditions: Adv. Cancer Res. 2000, 79, 1-38; cited from earlier work.
Consider `Cc1cc(C)c(/C=C2\C(=O)Nc3ccccc32)[nH]1` [SU5416], for which the “in vivo activity against certain tumor models” value was “good in vivo activity”.

Test system in a further data set: not given
Conditions: not given
`O=C(NN=Cc1ccc(Cl)cc1)c1[nH]c2ccccc2c1C(=O)Nc1ccccc1` [Example 107, 2-((2-(4-chlorobenzylidene)hydrazino)carbonyl)-N-phenyl-1H-indole-3-carboxamide] gave a melting point of over 260 °C. In turn, `CN(N=Cc1ccc(C#N)cc1)C(=O)c1[nH]c2ccccc2c1-c1ccccc1` [Example 150, N′-((4-cyanophenyl)methylidene)-N-methyl-3-phenyl-1H-indole-2-carbohydrazide] registered a melting point of 194 to 196 °C. With `O=C(NN=Cc1ccc(Br)cc1)c1[nH]c2ccccc2c1Cc1ccccc1` [Example 104, 3-benzyl-N′-((4-bromophenyl)methylidene)-1H-indole-2-carbohydrazide], the melting point is 227 to 229 °C. With `CSc1c(C(=O)NN=Cc2ccc(Cl)cc2)[nH]c2ccccc12` [Example 108, N′-((4-chlorophenyl)methylidene)-3-(methylthio)-1H-indole-2-carbohydrazide], the melting point lay in the range of 232 to 235 °C. Same read-out and setting: as for `CS(=O)(=O)c1c(C(=O)NN=Cc2nccs2)[nH]c2ccccc12` [Example 111, 3-(methylsulfonyl)-N′-(1,3-thiazol-2-ylmethylidene)-1H-indole-2-carbohydrazide], the figure is over 280 °C.

With `CN(N=Cc1cnc[nH]1)C(=O)c1[nH]c2ccccc2c1-c1ccccc1` [Example 152, N′-(1H-imidazol-5-ylmethylidene)-N-methyl-3-phenyl-1H-indole-2-carbohydrazide], the melting point is 248 to 250 °C. As for `CCN(CC)C(=O)c1c(C(=O)NN=Cc2ccc(Cl)cc2)[nH]c2ccccc12` [Example 105, 2-((2-(4-chlorobenzylidene)hydrazino)carbonyl)-N,N-diethyl-1H-indole-3-carboxamide], the melting point lay within 255 to 257 °C. The molecule `CS(=O)(=O)c1c(C(=O)NN=Cc2ccc(Cl)cc2)[nH]c2ccccc12` [Example 110, N′-((4-chlorophenyl)methylidene)-3-(methylsulfonyl)-1H-indole-2-carbohydrazide] returned a melting point of over 280 °C.

For the molecule `CN(N=Cc1ccco1)C(=O)c1[nH]c2ccccc2c1-c1ccccc1` [Example 149, N′-(2-furylmethylidene)-N-methyl-3-phenyl-1H-indole-2-carbohydrazide], the melting point is 196 to 199 °C. In turn, `CN(N=Cc1ccc(Br)cc1)C(=O)c1[nH]c2ccccc2c1-c1ccccc1` [Example 151, N′-((4-bromophenyl)methylidene)-N-methyl-3-phenyl-1H-indole-2-carbohydrazide] registered a melting point of 210 to 212 °C. As for `CSc1c(C(=O)NN=Cc2nccs2)[nH]c2ccccc12` [Example 109, 3-(methylthio)-N′-(1,3-thiazol-2-ylmethylidene)-1H-indole-2-carbohydrazide], the melting point fell in the range of 216 to 222 °C. `CN(C)C(=O)c1c(C(=O)NN=Cc2ccc3ccccc3c2)[nH]c2ccccc12` [Example 136, N,N-dimethyl-2-((2-(2-naphthylmethylene)hydrazino)carbonyl)-1H-indole-3-carboxamide] showed a melting point of 256 to 260 °C. Same read-out and setting: as for `O=C(NN=Cc1ccc(Cl)cc1)c1[nH]c2ccccc2c1Br` [Example 119, 3-bromo-N′-((4-chlorophenyl)methylidene)-1H-indole-2-carbohydrazide], the figure is over 250 °C. The same measure, in the same setting: the result for `CS(=O)(=O)c1c(C(=O)NN=Cc2cccc3ccccc23)[nH]c2ccccc12` [Example 135, 3-(methylsulfonyl)-N′-(1-naphthylmethylidene)-1H-indole-2-carbohydrazide] reads over 250 °C; that for `O=C(NN=Cc1ccc(Cl)cc1)c1[nH]c2ccccc2c1Cc1ccccc1` [Example 103, 3-benzyl-N′-((4-chlorophenyl)methylidene)-1H-indole-2-carbohydrazide], 221 to 222 °C; that for `COc1c(C(=O)NN=Cc2ccc(Cl)cc2)[nH]c2ccccc12` [Example 118, N′-((4-chlorophenyl)methylidene)-3-methoxy-1H-indole-2-carbohydrazide], 249 to 251 °C.
